Experimental data taken from PubChem BioAssay AID256 (DTP/NCI, 2004).
Toxic doses and inconclusive results are not listed.

Test system: CD2F1 mice, L1210 leukemia ip, survival T/C
Experiment: NCI In Vivo Anticancer Drug Screen. Data for tumor model L1210 Leukemia (intraperitoneal) in CD2F1 (CDF1) mice
Conditions: endpoint: mean survival time, higher = longer survival
Method in brief: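 Antitumor effect is scored in animals hosting a serially transplanted tumor. Values compare compound-dosed animals against vehicle-only controls as a simple quotient.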

[1] = dose: 6.25 mg/kg/injection, schedule: Q01DX001 (ip), vehicle: saline with Tween-80
[2] = dose: 100.0 mg/kg/injection, schedule: Q01DX001 (ip), vehicle: saline with Tween-80
[3] = dose: 100.0 mg/kg/injection, schedule: Q04DX003 (ip), vehicle: saline with Tween-80
[4] = dose: 200.0 mg/kg/injection, schedule: Q04DX003 (ip), vehicle: saline with Tween-80

`Cc1cn(C2CC(O)C(CN=[N+]=[N-])O2)c(=O)[nH]c1=O` (stereo not given) was tested, and the T/C (dose: 12.5 mg/kg/injection, schedule: Q01DX005 (ip), vehicle: other) was 93 % of control, the T/C (dose: 25.0 mg/kg/injection, schedule: Q01DX005 (ip), vehicle: other) was 96 % of control and the T/C (dose: 50.0 mg/kg/injection, schedule: Q01DX005 (ip), vehicle: other) was 95 % of control. The T/C (dose: 100.0 mg/kg/injection, schedule: Q01DX005 (ip), vehicle: other) was 93 % of control and the T/C (dose: 200.0 mg/kg/injection, schedule: Q01DX005 (ip), vehicle: other) was 93 % of control.
For `COc1ccc(OC)c(CC(C(C)=O)C(C)=O)c1`, the T/C (dose: 12.5 mg/kg/injection, schedule: Q01DX009 (ip), vehicle: water) was 100 % of control, the T/C (dose: 25.0 mg/kg/injection, schedule: Q01DX009 (ip), vehicle: water) was 96 % of control and the T/C (dose: 50.0 mg/kg/injection, schedule: Q01DX009 (ip), vehicle: water) was 100 % of control. The T/C (dose: 100.0 mg/kg/injection, schedule: Q01DX009 (ip), vehicle: water) was 98 % of control and the T/C (dose: 200.0 mg/kg/injection, schedule: Q01DX009 (ip), vehicle: water) was 95 % of control.
`CC(=O)OC/C(=N\Nc1ccc([N+](=O)[O-])cc1[N+](=O)[O-])c1ccccc1` was tested, and the T/C (dose: 3.13 mg/kg/injection, schedule: Q01DX001 (ip), vehicle: saline with Tween-80) was 107 % of control, the T/C [1] was 94 % of control and the T/C [2] was 86 % of control. The T/C (dose: 400.0 mg/kg/injection, schedule: Q01DX001 (ip), vehicle: saline with Tween-80) was 90 % of control.
With `O=C(O)c1ccc(O)cc1C(=O)O.[NH-]C1CCCCC1[NH-].[Pt+2]` the T/C (dose: 1.17 mg/kg/injection, schedule: Q04DX003 (ip), vehicle: other) was 168 % of control, the T/C (dose: 9.38 mg/kg/injection, schedule: Q04DX003 (ip), vehicle: other) was 194 % of control and the T/C (dose: 18.75 mg/kg/injection, schedule: Q04DX003 (ip), vehicle: other) was 189 % of control.
`O=C1C(Br)C2CCC1C2C(=O)O` (stereo not given) was tested, and the T/C [3] was 101 % of control, the T/C [4] was 98 % of control and the T/C (dose: 400.0 mg/kg/injection, schedule: Q04DX003 (ip), vehicle: saline with Tween-80) was 98 % of control.
With `Cc1ccc(NC(=O)Oc2ccc(C(C)(C)C)cc2Br)c(C)c1` the T/C (dose: 50.0 mg/kg/injection, schedule: Q01DX009 (ip), vehicle: saline with Tween-80) was 101 % of control, the T/C (dose: 100.0 mg/kg/injection, schedule: Q01DX009 (ip), vehicle: saline with Tween-80) was 96 % of control and the T/C (dose: 200.0 mg/kg/injection, schedule: Q01DX009 (ip), vehicle: saline with Tween-80) was 116 % of control.
In the case of `COCS(=O)[O-].[C-]#[O+].[C-]#[O+].[Fe+6].[c-]1[c-][c-][cH-][c-]1`, the T/C (dose: 12.5 mg/kg/injection, schedule: Q04DX002 (ip), vehicle: saline) is reported as 101 % of control, the T/C (dose: 25.0 mg/kg/injection, schedule: Q04DX002 (ip), vehicle: saline) is reported as 93 % of control and the T/C (dose: 50.0 mg/kg/injection, schedule: Q04DX002 (ip), vehicle: saline) is reported as 96 % of control.
For `Cc1cccc(NC(N)=S)n1`, the T/C (dose: 12.5 mg/kg/injection, schedule: Q01DX009 (ip), vehicle: other) was 103 % of control, the T/C (dose: 25.0 mg/kg/injection, schedule: Q01DX009 (ip), vehicle: other) was 107 % of control and the T/C (dose: 50.0 mg/kg/injection, schedule: Q01DX009 (ip), vehicle: other) was 107 % of control. For the same molecule, the T/C (dose: 100.0 mg/kg/injection, schedule: Q01DX009 (ip), vehicle: other) was 91 % of control and the T/C (dose: 200.0 mg/kg/injection, schedule: Q01DX009 (ip), vehicle: other) was 111 % of control.
With `CC/C(C)=C1\OC(=O)C(C)C(O)C(Cc2cccnc2)NC(=O)C(NC(=O)c2ncccc2O)C(C)OC1=O` (stereo not given) the T/C (dose: 3.13 mg/kg/injection, schedule: Q01DX009 (ip), vehicle: saline with Tween-80) was 96 % of control, the T/C (dose: 6.25 mg/kg/injection, schedule: Q01DX009 (ip), vehicle: saline with Tween-80) was 95 % of control and the T/C (dose: 12.5 mg/kg/injection, schedule: Q01DX009 (ip), vehicle: saline with Tween-80) was 96 % of control. For the same molecule, the T/C (dose: 25.0 mg/kg/injection, schedule: Q01DX009 (ip), vehicle: saline with Tween-80) was 96 % of control.
`O=[N+]([O-])c1ccc2c(c1)Cc1cc(N(CBr)CBr)ccc1-2` was tested, and the T/C (dose: 100.0 mg/kg/injection, schedule: Q04DX003 (ip), vehicle: saline) was 109 % of control, the T/C (dose: 200.0 mg/kg/injection, schedule: Q04DX003 (ip), vehicle: saline) was 107 % of control and the T/C (dose: 400.0 mg/kg/injection, schedule: Q04DX003 (ip), vehicle: saline) was 121 % of control.
With `O=C(/C=C/C(=O)c1ccccc1)c1ccccc1` the T/C [1] was 92 % of control, the T/C (dose: 12.5 mg/kg/injection, schedule: Q01DX001 (ip), vehicle: saline with Tween-80) was 107 % of control and the T/C (dose: 25.0 mg/kg/injection, schedule: Q01DX001 (ip), vehicle: saline with Tween-80) was 96 % of control. The T/C (dose: 50.0 mg/kg/injection, schedule: Q01DX001 (ip), vehicle: saline with Tween-80) was 89 % of control and the T/C [2] was 94 % of control.
In the case of `Clc1nnc(-c2ccccc2)s1`, the T/C [3] is reported as 101 % of control and the T/C [4] is reported as 91 % of control.
